# Source: patent US20080125424A1, “Derivatives of urea and related diamines, methods for their manufacture, and uses therefor” (priority 2006, published 2008)
# Target: T1, Human Ca2+ receptor (Homo sapiens, UniProt P41180)
# T1 construct: expressed in transfected cells
# T1 sequence (P41180 20-1078): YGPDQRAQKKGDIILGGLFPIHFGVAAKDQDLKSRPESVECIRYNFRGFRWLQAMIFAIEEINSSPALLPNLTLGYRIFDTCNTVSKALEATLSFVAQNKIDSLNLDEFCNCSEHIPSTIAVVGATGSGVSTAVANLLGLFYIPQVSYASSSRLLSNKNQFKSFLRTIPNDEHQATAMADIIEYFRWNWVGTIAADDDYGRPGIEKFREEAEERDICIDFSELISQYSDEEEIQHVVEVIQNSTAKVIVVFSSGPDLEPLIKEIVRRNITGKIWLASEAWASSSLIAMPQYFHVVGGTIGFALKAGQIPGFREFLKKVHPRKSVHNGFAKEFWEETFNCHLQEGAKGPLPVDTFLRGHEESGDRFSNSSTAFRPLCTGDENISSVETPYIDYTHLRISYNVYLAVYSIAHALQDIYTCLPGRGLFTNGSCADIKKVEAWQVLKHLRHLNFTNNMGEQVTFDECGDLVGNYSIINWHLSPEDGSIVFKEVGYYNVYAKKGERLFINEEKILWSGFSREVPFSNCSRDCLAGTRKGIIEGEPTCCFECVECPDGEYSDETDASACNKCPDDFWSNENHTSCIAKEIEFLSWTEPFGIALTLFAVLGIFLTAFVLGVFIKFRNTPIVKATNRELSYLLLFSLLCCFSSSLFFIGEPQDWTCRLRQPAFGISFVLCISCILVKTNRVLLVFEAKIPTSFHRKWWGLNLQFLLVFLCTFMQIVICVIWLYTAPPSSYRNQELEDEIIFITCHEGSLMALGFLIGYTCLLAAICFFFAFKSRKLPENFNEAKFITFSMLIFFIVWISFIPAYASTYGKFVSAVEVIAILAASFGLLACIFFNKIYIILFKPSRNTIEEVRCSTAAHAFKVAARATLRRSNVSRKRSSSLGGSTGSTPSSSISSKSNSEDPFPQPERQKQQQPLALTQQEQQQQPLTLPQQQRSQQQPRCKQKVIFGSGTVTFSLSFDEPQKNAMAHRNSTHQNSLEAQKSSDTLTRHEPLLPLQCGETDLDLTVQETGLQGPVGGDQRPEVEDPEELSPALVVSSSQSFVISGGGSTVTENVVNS
# Test: Luciferase reporter assay in CHO cells (ET8-5-5) transfected with human Ca2+ receptor
# Assay type: cell-based
# Details: CHO ET8-5-5 cells, 5 h incubation with test compound
# Protocol: The activities of the compounds of the present invention on calcium receptors were measured in accordance with the method described hereinbelow.
# Human Ca^2+ receptor cDNA was subcloned into the mammalian expression vector PECE as described in Ellis, L et al. (1986) Cell vol. 45, 721-732. The luciferase reporter was subcloned into the mammalian expression vector pGL3basic (Promega). Resistance to neomycin (pSV2-neo) and resistance to puromycin (pSG5-puro) were used as selection markers. All these plasmids were simultaneously transfected into CHO cells by calcium phosphate precipitation. Transfected cells were grown in F12 medium containing 7.5% foetal bovine serum, 100 U/ml penicillin and 100 μg/ml streptomycin (as 1% Pen-Strep, BioWithaker), neomycin (750 μg/ml) and puromycin (5 μg/ml). Neomycin and puromycin resistant colonies were subcloned and assayed for activation against a range of calcium concentration. Clone 8-5-5 was used to assess the effects of compounds on [Ca^2+]i. This stably transfected cell line was termed ET8-5-5.
# For measurements of [Ca^2+]i, the cells were recovered from tissue culture flasks by brief treatment with Trypsin-EDTA (Invitrogen; containing 0.53 mM EDTA.4Na in HBSS) and then seeded in culture-treated 96-well plates (Greiner) at 50 k cells per well in the growth media (same as above, except neomycin 400 μg/ml). Cells were grown in 37° C. TC incubator for 24 h. The culture medium was then removed and replaced with F12 medium, 1% Pen-Strep for an overnight foetal bovine serum starvation in 37° C. TC incubator. Then the starvation medium was removed and replaced with a test buffer (20 mM HEPES pH 7.4, 125 mM NaCl, 5 mM KCl, 1 mM MgCl2, 5.5 mM Glucose, 2 g/l lysosyme and 0.3 mM CaCl2) supplemented with a range of test compound concentrations crossed against a super-added range of CaCl2 concentrations. The cells were incubated with the test compounds for 5 h in 37° C. TC incubator. Then the test buffer was discarded, and cells were added with the substrate for Luciferase from SteadyLite Kit (Perkin-Elmer). The luminescence was recorded.
row,Structure (SMILES),EC50 [µM]
1,"COC(=O)c1cccc(NC(=O)N(CCC(c2ccccc2)c2ccccc2)CC(=O)OC(C)(C)C)c1 [Example 63, 3-[3-tert-butoxycarbonylmethyl-3-(3,3-diphenyl-propyl)-ureido]-benzoic acid methyl ester]",0.1 to 1
2,"CCOC(=O)CCCN(CCC(c1ccccc1)c1ccccc1)C(=O)Nc1cccc(C(=O)OC)c1 [Example 64, 3-[3-(3,3-diphenyl-propyl)-3-(3-ethoxycarbonyl-propyl)-ureido]-benzoic acid methyl ester]",< 0.1
3,"O=C(O)CCCN(CCC(c1ccccc1)c1ccccc1)C(=O)Nc1cccc(C(=O)O)c1 [Example 65, 3-[3-(3-carboxy-propyl)-3-(3,3-diphenyl-propyl)-ureido]-benzoic acid]",1 to 10
4,"O=C(O)CN(CCC(c1ccccc1)c1ccccc1)C(=O)Nc1cccc(C(=O)O)c1 [Example 66, 3-[3-carboxymethyl-3-(3,3-diphenyl-propyl)-ureido]-benzoic acid]",1 to 10

# Further lines, results first:
row,EC50 [µM],Structure (SMILES)
1,0.1 to 1,"COC(=O)c1ccccc1S(=O)(=O)NCCN(CCC(c1ccccc1)c1ccccc1)C(=O)Nc1nc2ccccc2s1 [Example 171, 2-{2-[3-Benzothiazol-2-yl-1-(3,3-diphenyl-propyl)-ureido]-ethylsulfamoyl}-benzoic acid methyl ester]"
2,0.1 to 1,"COc1ccc(S(=O)(=O)NCCN(CCC(c2ccccc2)c2ccccc2)C(=O)Nc2nc3ccccc3s2)cc1 [Example 172, N-{2-[3-Benzothiazol-2-yl-1-(3,3-diphenylpropyl)-ureido]-ethyl}-4-methoxybenzenesulfonamide]"
3,0.1 to 1,"O=C(Nc1nc2ccccc2s1)N(CCNS(=O)(=O)c1ccc(C(F)(F)F)cc1)CCC(c1ccccc1)c1ccccc1 [Example 173, N-{2-[3-Benzothiazol-2-yl-1-(3,3-diphenylpropyl)-ureido]-ethyl}-4-trifluoromethyl-benzenesulfonamide]"
